Test results taken from PubChem BioAssay (NCI).
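In this assay, cells in 96-well plates receive the compound at five concentrations for 48 hours. Endpoints are linearly interpolated between the surrounding concentrations. GI50: concentration for 50% inhibition of growth. TGI denotes the concentration required for complete inhibition of growth.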

Assays:
Experiment in all cases: DTP human tumour cell line panel, 48 h; in the data active = GI50 below about 0.43 µM; inactive = the rest
786-0 renal = test system: 786-0 renal
A549 NSCLC = test system: A549 NSCLC
ACHN renal = test system: ACHN renal
BT-549 breast = test system: BT-549 breast
CAKI-1 renal = test system: CAKI-1 renal
CCRF-CEM leukemia = test system: CCRF-CEM leukemia
COLO 205 colon = test system: COLO 205 colon
DU-145 prostate = test system: DU-145 prostate
HCC-2998 colon = test system: HCC-2998 colon
HCT-116 colon = test system: HCT-116 colon
HCT-15 colon = test system: HCT-15 colon
HL-60(TB) leukemia = test system: HL-60(TB) leukemia
HOP-62 NSCLC = test system: HOP-62 NSCLC
HS 578T breast = test system: HS 578T breast
HT29 colon = test system: HT29 colon
IGROV1 ovarian = test system: IGROV1 ovarian
K-562 leukemia = test system: K-562 leukemia
KM12 colon = test system: KM12 colon
LOX IMVI melanoma = test system: LOX IMVI melanoma
M14 melanoma = test system: M14 melanoma
MALME-3M melanoma = test system: MALME-3M melanoma
MCF7 breast = test system: MCF7 breast
MDA-MB-231 breast = test system: MDA-MB-231 breast
MDA-MB-435 = test system: MDA-MB-435
MOLT-4 leukemia = test system: MOLT-4 leukemia
NCI-H226 lung = test system: NCI-H226 lung
NCI-H23 lung = test system: NCI-H23 lung
NCI-H460 lung = test system: NCI-H460 lung
NCI-H522 lung = test system: NCI-H522 lung
NCI/ADR-RES ovarian = test system: NCI/ADR-RES ovarian
OVCAR-3 ovarian = test system: OVCAR-3 ovarian
OVCAR-4 ovarian = test system: OVCAR-4 ovarian
OVCAR-5 ovarian = test system: OVCAR-5 ovarian
OVCAR-8 ovarian = test system: OVCAR-8 ovarian
PC-3 prostate = test system: PC-3 prostate
RPMI-8226 leukemia = test system: RPMI-8226 leukemia
RXF 393 renal = test system: RXF 393 renal
SF-268 CNS = test system: SF-268 CNS
SF-295 CNS = test system: SF-295 CNS
SF-539 CNS = test system: SF-539 CNS
SK-MEL-2 melanoma = test system: SK-MEL-2 melanoma
SK-MEL-28 melanoma = test system: SK-MEL-28 melanoma
SK-MEL-5 melanoma = test system: SK-MEL-5 melanoma
SK-OV-3 ovarian = test system: SK-OV-3 ovarian
SN12C renal = test system: SN12C renal
SNB-19 CNS = test system: SNB-19 CNS
SNB-75 CNS = test system: SNB-75 CNS
SR leukemia = test system: SR leukemia
SW-620 colon = test system: SW-620 colon
T-47D breast = test system: T-47D breast
U251 CNS = test system: U251 CNS
UACC-257 melanoma = test system: UACC-257 melanoma
UACC-62 melanoma = test system: UACC-62 melanoma
UO-31 renal = test system: UO-31 renal

COc1cc(Cl)cc(-c2nn(-c3cccc(NC(=O)c4cccc(C(F)(F)F)c4)c3)cc2-c2ccncc2)c1
9.97 µM: TGI (MDA-MB-231 breast)
inactive: GI50 (786-0 renal) 16.7 µM | GI50 (A549 NSCLC) 3.62 µM | GI50 (ACHN renal) 7.21 µM | GI50 (BT-549 breast) > 100 µM | GI50 (CAKI-1 renal) 3.85 µM | GI50 (CCRF-CEM leukemia) 4.38 µM | GI50 (COLO 205 colon) 33.7 µM | GI50 (DU-145 prostate) > 100 µM | GI50 (HCC-2998 colon) 6.66 µM | GI50 (HCT-116 colon) 3.17 µM | GI50 (HCT-15 colon) 3.35 µM | GI50 (HL-60(TB) leukemia) 45.9 µM | GI50 (HOP-62 NSCLC) > 100 µM | GI50 (HS 578T breast) > 100 µM | GI50 (HT29 colon) 3.37 µM | GI50 (IGROV1 ovarian) > 100 µM | GI50 (K-562 leukemia) 4.69 µM | GI50 (KM12 colon) 4.53 µM | GI50 (LOX IMVI melanoma) 15.7 µM | GI50 (M14 melanoma) 6.09 µM | GI50 (MALME-3M melanoma) > 100 µM | GI50 (MCF7 breast) 4.17 µM | GI50 (MDA-MB-231 breast) 1.38 µM | GI50 (MDA-MB-435) > 100 µM | GI50 (MOLT-4 leukemia) 2.78 µM | GI50 (NCI-H226 lung) > 100 µM | GI50 (NCI-H23 lung) 6.74 µM | GI50 (NCI-H460 lung) 5.17 µM | GI50 (NCI-H522 lung) 1.99 µM | GI50 (NCI/ADR-RES ovarian) 5.37 µM | GI50 (OVCAR-3 ovarian) 7.69 µM | GI50 (OVCAR-4 ovarian) > 100 µM | GI50 (OVCAR-5 ovarian) > 100 µM | GI50 (OVCAR-8 ovarian) 6.88 µM | GI50 (PC-3 prostate) 2.71 µM | GI50 (RPMI-8226 leukemia) 3.13 µM | GI50 (RXF 393 renal) 1.87 µM | GI50 (SF-268 CNS) > 100 µM | GI50 (SF-295 CNS) 3.91 µM | GI50 (SF-539 CNS) > 100 µM | GI50 (SK-MEL-2 melanoma) 6.78 µM | GI50 (SK-MEL-28 melanoma) > 100 µM | GI50 (SK-MEL-5 melanoma) 5.43 µM | GI50 (SK-OV-3 ovarian) > 100 µM | GI50 (SN12C renal) > 100 µM | GI50 (SNB-19 CNS) > 100 µM | GI50 (SNB-75 CNS) 6.62 µM | GI50 (SR leukemia) 2.48 µM | GI50 (SW-620 colon) > 100 µM | GI50 (T-47D breast) 4.69 µM | GI50 (U251 CNS) 5.56 µM | GI50 (UACC-257 melanoma) > 100 µM | GI50 (UACC-62 melanoma) 8.04 µM | GI50 (UO-31 renal) 2.71 µM
> 100 µM: TGI (786-0 renal) | TGI (A549 NSCLC) | TGI (ACHN renal) | TGI (BT-549 breast) | TGI (CAKI-1 renal) | TGI (CCRF-CEM leukemia) | TGI (COLO 205 colon) | TGI (DU-145 prostate) | TGI (HCC-2998 colon) | TGI (HCT-116 colon) | TGI (HCT-15 colon) | TGI (HL-60(TB) leukemia) | TGI (HOP-62 NSCLC) | TGI (HS 578T breast) | TGI (HT29 colon) | TGI (IGROV1 ovarian) | TGI (K-562 leukemia) | TGI (KM12 colon) | TGI (LOX IMVI melanoma) | TGI (M14 melanoma) | TGI (MALME-3M melanoma) | TGI (MCF7 breast) | TGI (MDA-MB-435) | TGI (MOLT-4 leukemia) | TGI (NCI-H226 lung) | TGI (NCI-H23 lung) | TGI (NCI-H460 lung) | TGI (NCI-H522 lung) | TGI (NCI/ADR-RES ovarian) | TGI (OVCAR-3 ovarian) | TGI (OVCAR-4 ovarian) | TGI (OVCAR-5 ovarian) | TGI (OVCAR-8 ovarian) | TGI (PC-3 prostate) | TGI (RPMI-8226 leukemia) | TGI (RXF 393 renal) | TGI (SF-268 CNS) | TGI (SF-295 CNS) | TGI (SF-539 CNS) | TGI (SK-MEL-2 melanoma) | TGI (SK-MEL-28 melanoma) | TGI (SK-MEL-5 melanoma) | TGI (SK-OV-3 ovarian) | TGI (SN12C renal) | TGI (SNB-19 CNS) | TGI (SNB-75 CNS) | TGI (SR leukemia) | TGI (SW-620 colon) | TGI (T-47D breast) | TGI (U251 CNS) | TGI (UACC-257 melanoma) | TGI (UACC-62 melanoma) | TGI (UO-31 renal)
